# Reference: patent publication US5502068A, “Cyclopropylpyrroloindole-oligopeptide anticancer agents” (Synphar Laboratories, Inc., priority 1995, dated 1996)
# Entries after “also recorded” stand apart in the source; their conditions may differ. Where two headings read alike, the source gives them in different places.
# Experiments:
# [1] = system: KB human nasopharyngeal carcinoma cells; test: Cytotoxicity (antiproliferative effect), crystal violet staining; format: cell-based; details: Homo sapiens, KB, 72 h
# Description: KB human nasopharyngeal carcinoma cells, were maintained in RPMI 1640 medium supplemented with 10% fetal bovine serum. KB cells were cultured in plastic tissue culture flasks and kept in an incubator at 37° C. in humidified air containing 5% CO2. These cells were free of Mycoplasma as determined with Hoechst 33258 stain.
# The antiproliferative effect of compounds was determined using cell staining method by crystal violet.
# One hundred-μ1 cultures were established at 10^3 cells/well in 96-well tissue culture plates (Nunc, Roskilde, Denmark). After 24 h. 100 µl of the medium containing 2 times concentrated the compounds were added to the cell culture. After an additional 3 days culture, cells were fixed to 20 µl of 25% glutaraldehyde for 15 minutes and washed with water, dried and stained with 0.05% crystal violet in 20% methanol for 15 minutes. After washing with water and drying, crystal violet was extracted with 100 µl of 50 mM NaH2 PO4 /ethanol (1:1 v/v) and OD540 was measured by the multiscanphotometer (Corona, Tokyo, Japan). A linear relationship between cell number and the amount of dye binding was found over the range of cell densities observed all experiments.
# DNA [2] = details: in words, cited from earlier work
# DNA [3] = test: Site and sequence selective DNA alkylation by polyacrylamide gel electrophoresis (PAGE); format: biochemical; details: for Alkylation Intensity at AATA*: site AATA*; for Alkylation Intensity at ATAA*: site ATAA*; for Alkylation Intensity at CTTA: site CTTA; for Alkylation Intensity at GAAA: site GAAA; for Alkylation Intensity at GATA*: site GATA*; for Alkylation Intensity at GTTA: site GTTA; for Alkylation Intensity at TATA: site TATA; for Alkylation Intensity at TTAA*: site TTAA*; for Alkylation Intensity at TTTA: site TTTA
# Source text: In contrast to FCE 24517, clear evidence of site and sequence selective DNA alkylation was obtained for the new CPI-oligopeptides by polyacrylamide gel electrophoresis (PAGE). […] Table 5 quantifies and compares the alkylation intensities at different sites for the CPI-oligopeptides with CC-1065. […] A detailed analysis of the frequency of occurrence of bases flanking the prominent alkylation sites for YW-052 and YW-053 compared with CC-1065 is given in Table 7.
# [4] = clinical applications/usage; in words; cited from earlier work
# [5] = system: P388 lymphocytic leukemia cells; test: Antitumor efficacy, i.p. P388 lymphocytic leukemia in CDF1 mice; format: in vivo, mouse; details: maximum ILS, P388 ip
# Description: All compounds were dissolved in dimethyl sulfoxide (DMSO), diluted in sterile 0.9% NaCl solution to 5% final DMSO concentration. BALB/c X DBA/2F1 (CDF1) mice were purchased from Japan CLEA. P388 lymphocytic leukemia cells were inoculated intraperitoneally (10^6 cells) 1 day prior to treatment into 6 week-old male CDF1 mice, and compounds were injected intraperitoneally in a total volume of 0.1 ml/10g mouse body weight. Efficacy for these models was expressed as the Increase in life span (ILS) of treated mice in comparison to untreated tumor-bearing mice. Experiment was completed on day 30 after tumor inoculation, and survivor on that day was evaluated as cured animal. Time to death (mean±SD.n=9) for untreated animals was 11.5±1.2 day and for solvent treated animals was 11.7±2.1 day.
# [6] = Table 1, KB cells, 3 days, read-out: KB cells, toxicity TD50
# [7] = Table 2, KB cells, 3 days, read-out: KB cells, toxicity TD50
# [8] = Table 4, KB cell, read-out: Cytotoxicity IC50 (KB cell)
structure (smiles),measurement,setting,value
"COc1cccc2c1C(=O)c1c(O)c3c(c(O)c1C2=O)C[C@@](O)(C(=O)CO)C[C@@H]3O[C@H]1C[C@H](N)[C@H](O)[C@H](C)O1 [Adriamycin, reference compound]",IC50,[1]; [6],11 ng/mL
same,IC50,[1]; [7],5 ng/mL
same,IC50,"[1]; Table 3, KB cells, 3 days, read-out: KB cells, toxicity TD50",4.4 ng/mL
"COc1c(O)c2c(c3cc(C(=O)N4CCc5c4c(O)c(OC)c4[nH]c(C(=O)N6CC7CC78C6=CC(=O)c6[nH]cc(C)c68)cc54)[nH]c13)CCN2C(N)=O (stereo not shown) [CC-1065, reference compound]",DNA sequence recognition,DNA [2],strictly AT recognizing; also recorded: strictly limited AATT recognition
same,"Frequency of Occurrence, base A at +1","DNA [3]; A, position +1",30%
same,"Frequency of Occurrence, base A at +2","DNA [3]; A, position +2",30%
same,"Frequency of Occurrence, base A at +3","DNA [3]; A, position +3",20%
same,"Frequency of Occurrence, base A at -1","DNA [3]; A, position -1",40%
same,"Frequency of Occurrence, base A at -2","DNA [3]; A, position -2",40%
same,"Frequency of Occurrence, base A at -3","DNA [3]; A, position -3",30%
same,"Frequency of Occurrence, A/T at +1","DNA [3]; A/T, position +1",80%
same,"Frequency of Occurrence, A/T at +2","DNA [3]; A/T, position +2",60%
same,"Frequency of Occurrence, A/T at +3","DNA [3]; A/T, position +3",50%
same,"Frequency of Occurrence, A/T at -1","DNA [3]; A/T, position -1",100%
same,"Frequency of Occurrence, A/T at -2","DNA [3]; A/T, position -2",100%
same,"Frequency of Occurrence, A/T at -3","DNA [3]; A/T, position -3",60%
same,"Frequency of Occurrence, base C at +3","DNA [3]; C, position +3",10%
same,"Frequency of Occurrence, base C at -3","DNA [3]; C, position -3",30%
same,"Frequency of Occurrence, base G at +1","DNA [3]; G, position +1",20%
same,"Frequency of Occurrence, base G at +2","DNA [3]; G, position +2",40%
same,"Frequency of Occurrence, base G at +3","DNA [3]; G, position +3",40%
same,"Frequency of Occurrence, base G at -3","DNA [3]; G, position -3",10%
same,DNA alkylation,"DNA [3]; PAGE, in words",alkylate DNA strongly
same,"Frequency of Occurrence, base T at +1","DNA [3]; T, position +1",50%
same,"Frequency of Occurrence, base T at +2","DNA [3]; T, position +2",30%
same,"Frequency of Occurrence, base T at +3","DNA [3]; T, position +3",30%
same,"Frequency of Occurrence, base T at -1","DNA [3]; T, position -1",60%
same,"Frequency of Occurrence, base T at -2","DNA [3]; T, position -2",60%
same,"Frequency of Occurrence, base T at -3","DNA [3]; T, position -3",30%
same,"Frequency of Occurrence, A* (site of alkylation)",DNA [3]; alkylated base A*,100%
same,"Frequency of Occurrence, G* (site of alkylation)",DNA [3]; alkylated base G*,0%
same,"Alkylation Sites (5'-3'), Moderate",DNA [3]; moderate sites,"TATA, TTAA, GTTA; also recorded: CTTA, GGAA"
same,Alkylation Intensity at AATA*,DNA [3],1.08
same,Alkylation Intensity at ATAA*,DNA [3]; first column of Table 5,1.47
same,Alkylation Intensity at ATAA*,DNA [3]; third column of Table 5,.96
same,Alkylation Intensity at CTTA,DNA [3],.61
same,Alkylation Intensity at GAAA,DNA [3],.35
same,Alkylation Intensity at GATA*,DNA [3],.80
same,Alkylation Intensity at GTTA,DNA [3],1.20
same,Alkylation Intensity at TATA,DNA [3],1.02
same,Alkylation Intensity at TTAA*,DNA [3],.80
same,Alkylation Intensity at TTTA,DNA [3],1.09
same,"Alkylation Sites (5'-3'), Strong",DNA [3]; strong sites,"TTTA, GATA, ATAA; also recorded: AATA, ATAA"
same,toxicity (delayed death syndrome),[4],too toxic for clinical applications because of the delayed death syndrome; also recorded: too toxic for clinical usage
same,IC50,[1]; [7],0.001 ng/mL
Cn1cc(NC(=O)c2cc(NC(=O)c3cc(NC(=O)c4ccc(N(CCCl)CCCl)cc4)cn3C)cn2C)cc1C(=O)NCCC(=N)N [FCE 24517],DNA alkylation,"DNA [2]; Arcamone et al., 1989",shows no evidence of DNA alkylation
same,DNA sequence recognition,DNA [2],strictly AT recognizing; also recorded: strictly limited AATT recognition
CC(=O)Nc1cc(C(=O)N2CC3CC34C2=CC(=O)c2[nH]cc(C)c24)n(C)c1 (stereo not shown) [YW-031],IC50,[1]; [6],0.0324 ng/mL
Cc1c[nH]c2c1C13CC1CN(C(=O)c1cccn1C)C3=CC2=O (stereo not shown) [YW-032],Alkylation Intensity at AATA*,DNA [3],1.35
same,Alkylation Intensity at ATAA*,DNA [3]; first column of Table 5,.88
same,Alkylation Intensity at ATAA*,DNA [3]; third column of Table 5,1.01
same,Alkylation Intensity at CTTA,DNA [3],.61
same,Alkylation Intensity at GAAA,DNA [3],.79
same,Alkylation Intensity at GATA*,DNA [3],1.35
same,Alkylation Intensity at GTTA,DNA [3],1.03
same,Alkylation Intensity at TATA,DNA [3],1.05
same,Alkylation Intensity at TTAA*,DNA [3],.71
same,Alkylation Intensity at TTTA,DNA [3],.63
same,IC50,[1]; [6],38 ng/mL
Cc1c[nH]c2c1C13CC1CN(C(=O)CCc1cccn1C)C3=CC2=O (stereo not shown) [YW-033],Alkylation Intensity at AATA*,DNA [3],1.42
same,Alkylation Intensity at ATAA*,DNA [3]; first column of Table 5,.95
same,Alkylation Intensity at ATAA*,DNA [3]; third column of Table 5,1.11
same,Alkylation Intensity at CTTA,DNA [3],.68
same,Alkylation Intensity at GAAA,DNA [3],.84
same,Alkylation Intensity at GATA*,DNA [3],1.41
same,Alkylation Intensity at GTTA,DNA [3],1.27
same,Alkylation Intensity at TATA,DNA [3],1.40
same,Alkylation Intensity at TTAA*,DNA [3],.84
same,Alkylation Intensity at TTTA,DNA [3],.97
same,IC50,[1]; [6],263 ng/mL
Cc1c[nH]c2c1C13CC1CN(C(=O)C=Cc1cccn1C)C3=CC2=O (stereo not shown) [YW-034],Alkylation Intensity at AATA*,DNA [3],1.30
same,Alkylation Intensity at ATAA*,DNA [3]; first column of Table 5,.71
same,Alkylation Intensity at ATAA*,DNA [3]; third column of Table 5,.84
same,Alkylation Intensity at CTTA,DNA [3],.44
same,Alkylation Intensity at GAAA,DNA [3],.55
same,Alkylation Intensity at GATA*,DNA [3],1.09
same,Alkylation Intensity at GTTA,DNA [3],.73
same,Alkylation Intensity at TATA,DNA [3],.77
same,Alkylation Intensity at TTAA*,DNA [3],.52
same,Alkylation Intensity at TTTA,DNA [3],.49
same,In vivo ILS P388 (ip),[5]; 1 mg/kg ip,37.9%
same,IC50,[1]; [6],0.275 ng/mL
same,IC50,[1]; [8],0.27 ng/mL
CCC(=O)Nc1cc(C(=O)N2CC3CC34C2=CC(=O)c2[nH]cc(C)c24)n(C)c1 (stereo not shown) [YW-035],In vivo ILS P388 (ip),[5]; 0.1 mg/kg ip,56.5%
same,IC50,[1]; [8],1 ng/mL
